The results in this text go back to ChEMBL document CHEMBL6109116, “Peripherally Restricted Fused Heterocyclic Peptidomimetic Multifunctional Opioid Agonists as Novel, Potent Analgesics” (ACS Med Chem Lett, 2025).

Active and inactive are the calls of the source. No cut-off for these calls is given here.

For series [1], the system named is Mus musculus. Kind of series: Antinociceptive activity in male C57BL/6J mouse preadministered with compound for 10 mins followed by acetic acid administration and measured after 15 to 30 min by Acetic acid stretching assay (AcAS). It counts as functional. To be noted: time 25-40 min.
A short description of series [2]: Toxicity in C57BL/6J mouse assessed as respiratory depression at 30 mg/kg, ip measured after 20 mins. The class given is organism-based. To be noted: in vivo.
Series [3] deals with Mus musculus. Kind of series: Antinociceptive activity in male C57BL/6J mouse assessed as peripheral restriction at 30 mg/kg, ip pre-treated with naloxone methiodide at 30 nmol, ICV for 30 min by 55 degreeC warm-water tail-withdrawal assay. It counts as functional.
The subject of series [4] is Mus musculus. Kind of series: Antinociceptive activity in wild type male C57BL/6J mouse model at 10 nmol, ICV preadministered with naltrindole for 20 mins followed by compound administration for 10 mins. The class given is functional, organism-based.
Series [5] can be described thus: Toxicity in C57BL/6J mouse assessed as increase in ambulation at 30 mg/kg, ip measured up to 120 min. It counts as organism-based. Particulars: in vivo, 2 h.
For series [6], the target named is Mu-type opioid receptor (Rattus norvegicus) (UniProt P33535). Description: Partial agonist activity at rat MOR extracted from CHO cell membrane assessed as stimulation of [35S]GTPgammaS binding at 1 to 10 uM incubated for 60 mins by liquid scintillation counting assay. The class given is functional, cell membranes. To be noted: dose 1-10 µM.
Series [7] deals with Kappa-type opioid receptor (Cavia porcellus, UniProt P41144). Kind of series: Displacement of [3H]U69593 from guinea pig KOR assessed as inhibition constant incubated for 2 hrs by Wallac Betaplate liquid scintillation counting analysis.
The test system of series [8] is Mus musculus. Kind of series: Antinociceptive activity in male C57BL/6J mouse at 30 mg/kg, po by 55 degreeC warm-water tail-withdrawal assay. It counts as functional, organism-based. To be noted: time <= 60.0 min.
Series [9] has as its system Mus musculus. Description: Antinociceptive activity in KOR knockout male C57BL/6J mouse model at 10 nmol, ICV administered for 10 mins by 55 degreeC warm-water tail-withdrawal assay. It counts as functional, organism-based.
Series [10] relates to Mus musculus. Kind of series: Antinociceptive activity in MOR knockout male C57BL/6J mouse model at 10 nmol, ICV administered for 10 mins by 55 degreeC warm-water tail-withdrawal assay. It counts as functional, organism-based.
The subject of series [11] is Mus musculus. Description: Antinociceptive activity in male C57BL/6J mouse assessed as peripheral restriction at 30 mg/kg, ip pre-treated with naloxone methiodide at 30 mg/kg, SC for 30 min by 55 degreeC warm-water tail-withdrawal assay. It counts as functional.
The species named for series [12] is Mus musculus. Description: Antinociceptive activity in male C57BL/6J mouse measured after 10 min by 55 degreeC warm-water tail-withdrawal assay. It counts as functional.
The next series concerns the target Mu-type opioid receptor (Rattus norvegicus, UniProt P33535). Kind of series: Displacement of [3H]-DAMGO from rat cortical membrane MOR assessed as inhibition constant incubated for 2 hrs by Wallac Betaplate liquid scintillation counting analysis. The class given is cell membranes, Cortex.
Series [13] can be described thus: Selectivity ratio of ED50 for antinociceptive activity in male C57BL/6J mouse at 10 mg/kg, ip measured after 10 min by 55 degreeC warm-water tail-withdrawal assay to ED50 for antinociceptive activity in male C57BL/6J mouse preadministered with compound for 10 mins followed by acetic acid administration and measured after 15 to 30 min by Acetic acid stretching assay (AcAS). It counts as functional.

In series [14] the target is Delta-type opioid receptor (Mus musculus) (UniProt P32300). Kind of series: Partial agonist activity at mouse DOR extracted from CHO cell membrane assessed as stimulation of [35S]GTPgammaS binding at 1 to 10 uM incubated for 60 mins by liquid scintillation counting assay. It counts as functional, cell membranes. To be noted: filed as partial agonist, dose 1-10 µM.
Series [15] can be described thus: Toxicity in C57BL/6J mouse assessed as effect on locomotor activity at 30 mg/kg, ip measured up to 120 min. It counts as organism-based. To be noted: in vivo, 2 h.
The target in series [16] is Kappa-type opioid receptor (Homo sapiens) (UniProt P41145). Description: Partial agonist activity at human KOR extracted from CHO cell membrane assessed as stimulation of [35S]GTPgammaS binding at 1 to 10 uM incubated for 60 mins by liquid scintillation counting assay. Particulars: filed as partial agonist, dose 1-10 µM. The class given is functional, cell membranes.

For series [17], the system named is Mus musculus. Kind of series: Antinociceptive activity in male C57BL/6J mouse assessed as peripheral restriction at 30 mg/kg, ip by 55 degreeC warm-water tail-withdrawal assay. The class given is functional.
For series [18], the target named is Delta-type opioid receptor (Rattus norvegicus, UniProt P33533). Description: Displacement of [3H]-DPDPE from rat cortical membrane DOR assessed as inhibition constant incubated for 2.5 hrs by Wallac Betaplate liquid scintillation counting analysis. The class given is cell membranes, Cortex.
For series [19], the system named is Mus musculus. Kind of series: Antinociceptive activity in male C57BL/6J mouse at 10 nmol, ICV administered for 8 hrs by 55 degreeC warm-water tail-withdrawal assay. The class given is functional, organism-based.

Mu-type opioid receptor (Rattus norvegicus), sequence (P33535 whole entry): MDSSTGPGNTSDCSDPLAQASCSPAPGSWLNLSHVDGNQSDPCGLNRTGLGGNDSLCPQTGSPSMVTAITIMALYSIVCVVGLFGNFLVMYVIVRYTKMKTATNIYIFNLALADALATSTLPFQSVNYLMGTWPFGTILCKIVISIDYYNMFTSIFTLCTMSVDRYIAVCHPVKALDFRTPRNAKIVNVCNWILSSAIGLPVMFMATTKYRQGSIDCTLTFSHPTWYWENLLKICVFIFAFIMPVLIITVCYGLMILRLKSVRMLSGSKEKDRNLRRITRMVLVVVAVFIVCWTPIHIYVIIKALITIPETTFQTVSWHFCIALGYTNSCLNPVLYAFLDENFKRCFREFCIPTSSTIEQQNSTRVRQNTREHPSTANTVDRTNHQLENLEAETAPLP
Mu-type opioid receptor, sequence (P33535 whole entry): as above
Kappa-type opioid receptor (Homo sapiens), sequence (P41145 whole entry): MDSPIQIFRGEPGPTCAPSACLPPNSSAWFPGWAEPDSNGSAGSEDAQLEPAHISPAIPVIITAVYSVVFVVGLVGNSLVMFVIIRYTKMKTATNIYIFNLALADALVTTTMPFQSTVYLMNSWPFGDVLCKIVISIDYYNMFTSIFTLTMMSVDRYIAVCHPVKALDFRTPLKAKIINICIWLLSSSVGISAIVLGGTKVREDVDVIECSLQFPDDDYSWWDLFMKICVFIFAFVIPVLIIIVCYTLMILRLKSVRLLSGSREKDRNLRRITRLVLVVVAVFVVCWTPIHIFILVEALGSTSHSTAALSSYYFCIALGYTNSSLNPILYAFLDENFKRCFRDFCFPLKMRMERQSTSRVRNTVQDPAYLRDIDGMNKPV
Delta-type opioid receptor, sequence (P33533 whole entry): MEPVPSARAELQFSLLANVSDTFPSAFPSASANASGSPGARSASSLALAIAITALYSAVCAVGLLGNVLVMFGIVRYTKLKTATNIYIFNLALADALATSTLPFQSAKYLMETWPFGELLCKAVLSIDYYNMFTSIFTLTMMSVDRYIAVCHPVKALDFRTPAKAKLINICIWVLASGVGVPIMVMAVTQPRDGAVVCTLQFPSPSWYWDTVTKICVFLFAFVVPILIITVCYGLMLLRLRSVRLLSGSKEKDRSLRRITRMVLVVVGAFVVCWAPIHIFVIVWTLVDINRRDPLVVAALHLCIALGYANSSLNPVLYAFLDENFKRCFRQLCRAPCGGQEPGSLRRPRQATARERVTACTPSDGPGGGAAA
Kappa-type opioid receptor, sequence (P41144 whole entry): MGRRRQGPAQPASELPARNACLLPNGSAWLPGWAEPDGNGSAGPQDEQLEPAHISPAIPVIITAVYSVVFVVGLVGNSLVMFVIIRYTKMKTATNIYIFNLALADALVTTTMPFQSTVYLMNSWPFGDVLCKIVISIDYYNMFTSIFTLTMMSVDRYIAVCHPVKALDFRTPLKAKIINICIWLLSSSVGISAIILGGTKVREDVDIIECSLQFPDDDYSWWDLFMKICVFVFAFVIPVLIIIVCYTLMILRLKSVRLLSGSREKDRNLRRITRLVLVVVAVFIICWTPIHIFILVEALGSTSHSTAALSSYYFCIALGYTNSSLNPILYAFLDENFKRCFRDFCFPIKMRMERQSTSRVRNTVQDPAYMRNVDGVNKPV
Delta-type opioid receptor (Mus musculus), sequence (P32300 whole entry): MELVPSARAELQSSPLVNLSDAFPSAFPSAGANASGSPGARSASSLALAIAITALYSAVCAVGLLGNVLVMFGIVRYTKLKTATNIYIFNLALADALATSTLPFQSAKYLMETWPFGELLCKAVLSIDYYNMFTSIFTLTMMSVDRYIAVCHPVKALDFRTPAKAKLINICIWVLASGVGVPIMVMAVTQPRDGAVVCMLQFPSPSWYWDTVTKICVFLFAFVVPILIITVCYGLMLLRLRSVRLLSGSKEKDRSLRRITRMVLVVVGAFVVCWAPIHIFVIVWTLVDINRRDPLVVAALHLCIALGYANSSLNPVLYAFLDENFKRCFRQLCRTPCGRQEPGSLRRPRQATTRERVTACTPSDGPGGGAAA

Turning to `CC(C)[C@H]1CN=C2C=C3N(CCc4ccccc4)CC[C@H](N(C)C)CN3[C@@H](Cc3ccc(O)cc3)CN21`, the figures for the ED50 with Mus musculus [1] and in the series filed under Mus musculus [12] were 0.67 mg/kg and 14 mg/kg, respectively. Moreover, the Activity entry is “Non-toxic” in series [2]; 59.1% with Mus musculus [3]; “Non-toxic” in [5]; “Not active; No Significant Activity” in [6]; “Time-dependent-effect” in the series on Mus musculus [8]; 3.5% in the series on Mus musculus [11]. Further, the Activity result in series [14] was “Active; Weak Partial Agonism Observed”; in series [15], “Non-toxic”; in the series on Mus musculus [17], 87.9%; in the series on Mus musculus [19], “Active; Comparable To Morphine And U50,489”. Besides, the outcome in the series on Mus musculus [4], in the series with Mus musculus [9] and in the series on Mus musculus [10] was inactive. Also, the inhibitory constant (Ki) in series [7] stood at 0.025 µM; at Mu-type opioid receptor it was 0.43 µM; in series [18], 0.02 µM. Moreover, in series [13], the “Ratio ED50” value is reported as 20.95. Besides, the outcome in [16] was Active.
